Laboratory results taken from patent US11684616B2, “Azalactam compounds as HPK1 inhibitors” (PFIZER INC., priority 2020, dated 2023).

Assays:
[1] = system: Phospho-SLP-76 (Ser376) in Jurkat cells; experiment: Phospho-SLP-76 (Ser376) HTRF assay in anti-CD3 stimulated Jurkat cells; type: cell-based; conditions: Homo sapiens, Jurkat, 30 min pre-treatment, anti-CD3 stimulation 15 min, read-out: pSLP76 IC50
Experimental: Cell Based Assays Phospho-SLP-76 (Ser376) Homogeneous Time Resolved Fluorescence (HTRF) Assay
Jurkat cells were seeded at 90,000 cells/well in 90 uL of RPMI1640 growth medium containing 10% FBS and incubated at 37° C. with 5% CO2 overnight. The following day, compounds were serially diluted from a 10 mM top dose for an 11-point 3-fold dilution curve in DMSO. Compounds were intermediately diluted 1:100 into growth media prior to diluting 1:10 on cells for final concentration 10 μM to 0.1 nM in 0.1% DMSO. After 30 min pre-treatment with compounds, the cells were stimulated using 200 μg/mL of F(ab)2 complexed anti-CD3 (clone UCTH1) for 15 min at 37° C. with 5% CO2. Stimulation was stopped with ice cold PBS and cells were harvested by centrifugation before lysis in Cisbio lysis buffer (Cisbio, Bedford, Mass.). Lysates were transferred to white, low-volume plates containing anti-phospho-SLP-76-Cryptate plus anti-phospho-SLP-76-d2 HTRF antibodies and incubated overnight at room temperature protected from light according to the manufacturer's protocol (Cisbio, Bedford, Mass.). HTRF was measured on a Perkin Elmer Envision and IC50 values were calculated by concentration-response curve fitting utilizing four-parameter nonlinear regression analyses.

[2] = target: human full-length autophosphorylated recombinant HPK1 (Homo sapiens (Human), UniProt Q92918); experiment: HPK1 biochemical enzyme assay (chelation-enhanced fluorescence, CHEF); conditions: 0.5 nM HPK1, 45 μM ATP, Morrison fit
How it was run: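 Autophosphorylated full-length human HPK1 from Sf21 cells, His-tag removed by TEV, residual N-terminal Gly-Ser. Activity measured with a C-Sox fluorescent peptide substrate (CHEF); initial velocities followed at λex 360/λem 500 nm, 30 °C for 15 min.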

Sequence of human full-length autophosphorylated recombinant HPK1 (Q92918 other isoform, or with tags, fused parts or gaps): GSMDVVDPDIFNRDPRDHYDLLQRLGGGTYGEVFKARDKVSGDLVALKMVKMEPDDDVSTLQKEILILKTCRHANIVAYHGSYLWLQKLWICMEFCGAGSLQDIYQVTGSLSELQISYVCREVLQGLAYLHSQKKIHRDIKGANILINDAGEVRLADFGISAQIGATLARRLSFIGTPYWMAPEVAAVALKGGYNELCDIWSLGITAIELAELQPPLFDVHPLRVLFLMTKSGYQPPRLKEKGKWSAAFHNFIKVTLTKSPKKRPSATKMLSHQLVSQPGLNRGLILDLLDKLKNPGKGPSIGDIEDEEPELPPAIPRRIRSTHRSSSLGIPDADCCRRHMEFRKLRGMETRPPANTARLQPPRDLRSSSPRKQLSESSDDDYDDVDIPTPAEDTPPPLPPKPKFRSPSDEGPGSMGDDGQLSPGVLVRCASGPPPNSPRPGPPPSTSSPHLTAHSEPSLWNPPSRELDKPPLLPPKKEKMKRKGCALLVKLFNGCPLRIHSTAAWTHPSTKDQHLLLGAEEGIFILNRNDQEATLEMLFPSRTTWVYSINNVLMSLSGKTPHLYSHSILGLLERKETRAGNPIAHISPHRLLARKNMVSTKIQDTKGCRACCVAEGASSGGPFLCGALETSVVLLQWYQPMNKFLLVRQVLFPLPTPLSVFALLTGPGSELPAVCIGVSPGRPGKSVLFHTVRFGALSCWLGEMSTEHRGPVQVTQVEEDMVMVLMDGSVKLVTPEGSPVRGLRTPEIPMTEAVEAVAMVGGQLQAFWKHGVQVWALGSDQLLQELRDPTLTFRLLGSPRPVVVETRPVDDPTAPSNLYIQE

IC50 [1]	Ki [2]	SMILES
26 nM	0.15 nM	CC[C@@H](N)c1nc(N(C)C(C)C)cc2c1CN(c1cccc(-c3nnc4n3[C@@H](CF)CC4)n1)C2=O [Example 34, 4-[(1R)-1-aminopropyl]-2-{6-[(5R)-5-(fluoromethyl)-6,7-dihydro-5H-pyrrolo[2,1-c][1,2,4]triazol-3-yl]pyridin-2-yl}-6-[methyl (propan-2-yl)amino]-2,3-dihydro-1H-pyrrolo[3,4-c]pyridin-1-one]
140 nM	1.02 nM	CCn1c(C)nnc1-c1cccc(N2Cc3c(cc(N4CCC[C@H]4C)nc3[C@@H](C)NC)C2=O)n1 (single isomer, unassigned) [Example 107]
487 nM	0.093 nM	CC[C@@H]1CCc2nnc(-c3cccc(N4Cc5c(cc(N6CCC[C@H]6C)nc5[C@@H](N)CC)C4=O)n3)n21 (single isomer, unassigned) [Example 16]
53 nM	< 0.07 nM	CC[C@@H](N)c1nc(N2CCC[C@H]2C)cc2c1CN(c1cccc(-c3nncn3CC)n1)C2=O [Example 140, 4-[(1R)-1-aminopropyl]-2-[6-(4-ethyl-4H-1,2,4-triazol-3-yl)pyridin-2-yl]-6-[(2R)-2-methylpyrroli-din-1-yl]-2,3-dihydro-1H-pyrrolo[3,4-c]pyridin-1-one]
23 nM	< 0.05 nM	C[C@@H]1CCCN1c1cc2c(c(C(C)(C)N)n1)CN(c1cccc(-c3nnc4n3[C@@H](C)CC4)n1)C2=O [Example 17, 4-(2-aminopropan-2-yl)-2-{6-[(5S)-5-methyl-6,7-dihydro-5H-pyrrolo[2,1-c][1,2,4]triazol-3-yl]pyridin-2-yl}-6-[(2R)-2-methylpyrroli-din-1-yl]-2,3-dihydro-1H-pyrrolo[3,4-c]pyridin-1-one]
96 nM	0.4 nM	CCCn1c(C)nnc1-c1cccc(N2Cc3c(cc(N(C)C(C)C)nc3[C@@H](C)N)C2=O)n1 (single isomer, unassigned) [Example 148, 4-[(1ξ)-1-aminoethyl]-6-[methyl (propan-2-yl)amino]-2-[6-(5-methyl-4-propyl-4H-1,2,4-triazol-3-yl)pyridin-2-yl]-2,3-dihydro-1H-pyrrolo[3,4-c]pyridin-1-one]
52 nM	< 0.05 nM	CNCc1nc(N(C)C(C)C)cc2c1CN(c1cccc(-c3nnc4n3[C@@H](CF)CC4)n1)C2=O [Example 205, 2-{6-[(5R)-5-(fluoromethyl)-6,7-dihydro-5H-pyrrolo[2,1-c][1,2,4]triazol-3-yl]pyridin-2-yl}-4-[(methyl-amino)methyl]-6-[methyl (propan-2-yl)amino]-2,3-dihydro-1H-pyrrolo[3,4-c] pyridin-1-one]
47 nM	< 0.05 nM	CNCc1nc(N(C)C(C)C)cc2c1CN(c1cccc(-c3nnc4n3[C@@H](C)CC4)n1)C2=O [Example 210, 4-[(methyl-amino)methyl]-2-{6-[(5S)-5-methyl-6,7-dihydro-5H-pyrrolo[2,1-c] [1,2,4]triazol-3-yl]pyridin-2-yl}-6-[methyl (propan-2-yl)amino]-2,3-dihydro-1H-pyrrolo[3,4-c] pyridin-1-one]
110 nM	0.074 nM	CC[C@@H](N)c1nc(C2(C)CC2)cc2c1CN(c1cccc(-c3nnc4n3[C@@H](CO)CC4)n1)C2=O (single isomer, unassigned) [Example 36]
171 nM	0.6 nM	CCCn1c(C)nnc1-c1cccc(N2Cc3c(cc(N(C)C(C)C)nc3[C@H](C)N)C2=O)n1 (single isomer, unassigned) [Example 149, 4-[(1ξ)-1-aminoethyl]-6-[methyl (propan-2-yl)amino]-2-[6-(5-methyl-4-propyl-4H-1,2,4-triazol-3-yl)pyridin-2-yl]-2,3-dihydro-1H-pyrrolo[3,4-c]pyridin-1-one]
159 nM	0.32 nM	CNCc1nc(N(C)C(C)C)cc2c1CN(c1cccc(-c3nnc4n3[C@@H](C)C[C@H]4C)n1)C2=O [Example 212, 2-{6-[(5S,7R)-5,7-dimethyl-6,7-dihydro-5H-pyrrolo[2,1-c] [1,2,4]triazol-3-yl]pyridin-2-yl}-4-[(methyl-amino)methyl]-6-[methyl (propan-2-yl)amino]-2,3-dihydro-1H-pyrrolo[3,4-c] pyridin-1-one]
46 nM	0.06 nM	CC[C@@H](N)c1nc(N2CCC[C@H]2C)cc2c1CN(c1cccc(-c3nnc4n3[C@@H](CF)CC4)n1)C2=O [Example 32, 4-[(1R)-1-aminopropyl]-2-{6-[(5R)-5-(fluoromethyl)-6,7-dihydro-5H-pyrrolo[2,1-c][1,2,4]triazol-3-yl]pyridin-2-yl}-6-[(2R)-2-methylpyrroli-din-1-yl]-2,3-dihydro-1H-pyrrolo[3,4-c]pyridin-1-one]
85 nM	0.6 nM	CNCc1nc(N(C)C)cc2c1CN(c1cccc(-c3nnc4n3[C@@H](C)CC4)n1)C2=O [Example 208, 6-(dimethyl-amino)-4-[(methylamino)methyl]-2-{6-[(5S)-5-methyl-6,7-dihydro-5H-pyrrolo[2,1-c] [1,2,4]triazol-3-yl]pyridin-2-yl}-2,3-dihydro-1H-pyrrolo[3,4-c] pyridin-1-one]
133 nM	0.67 nM	CCCn1cnnc1-c1cccc(N2Cc3c(cc(C4(C)CC4)nc3[C@H](C)NC)C2=O)n1 [Example 113, 4-[(1S)-1-(methylamino)ethyl]-6-(1-methylcyclo-propyl)-2-[6-(4-propyl-4H-1,2,4-triazol-3-yl)pyridin-2-yl]-2,3-dihydro-1H-pyrrolo[3,4-c]pyridin-1-one]
33 nM	0.12 nM	CCn1cnnc1-c1cccc(N2Cc3c(cc(N4CCC[C@H]4C)nc3[C@@H](C)N)C2=O)n1 (single isomer, unassigned) [Example 151]
104 nM	0.27 nM	CCCn1c(C)nnc1-c1cccc(N2Cc3c(cc(N(C)C(C)C)nc3C(C)(C)N)C2=O)n1 [Example 139, 4-(2-amino-propan-2-yl)-6-[methyl (propan-2-yl)amino]-2-[6-(5-methyl-4-propyl-4H-1,2,4-triazol-3-yl)pyridin-2-yl]-2,3-dihydro-1H-pyrrolo[3,4-c]pyridin-1-one]
118 nM	0.17 nM	CCCn1cnnc1-c1cccc(N2Cc3c(cc(N4CCC[C@H]4C)nc3[C@@H](C)N)C2=O)n1 (single isomer, unassigned) [Example 101]
148 nM	0.38 nM	CCn1cnnc1-c1cccc(N2Cc3c(cc(N(C)C)nc3C(C)(C)N)C2=O)n1 [Example 132, 4-(2-aminopropan-2-yl)-6-(dimethyl-amino)-2-[6-(4-ethyl-4H-1,2,4-triazol-3-yl)pyridin-2-yl]-2,3-dihydro-1H-pyrrolo[3,4-c]pyridin-1-one]
133 nM	0.08 nM	C[C@H]1CCc2nnc(-c3cccc(N4Cc5c(cc(N(C)C)nc5C(C)(C)N)C4=O)n3)n21 (single isomer, unassigned) [Example 22, 4-(2-aminopropan-2-yl)-6-(dimethyl-amino)-2-{6-[(5ξ)-5-methyl-6,7-dihydro-5H-pyrrolo[2,1-c][1,2,4]triazol-3-yl]pyridin-2-yl}-2,3-dihydro-1H-pyrrolo[3,4-c]pyridin-1-one]
23 nM	< 0.05 nM	CC[C@@H](N)c1nc(N(C)C(C)C)cc2c1CN(c1cccc(-c3nnc4n3[C@@H](CO)CC4)n1)C2=O [Example 20, 4-[(1R)-1-aminopropyl]-2-{6-[(5R)-5-(hydroxy-methyl)-6,7-dihydro-5H-pyrrolo[2,1-c][1,2,4]triazol-3-yl]pyridin-2-yl}-6-[methyl(propan-2-yl)amino]-2,3-dihydro-1H-pyrrolo[3,4-c]pyridin-1-one]
84 nM	0.61 nM	CCn1c(C)nnc1-c1cccc(N2Cc3c(cc(N4CCC[C@H]4C)nc3[C@H](C)NC)C2=O)n1 (single isomer, unassigned) [Example 108]
181 nM	0.3 nM	COC[C@@H](N)c1nc(C2(C)CC2)cc2c1CN(c1cccc(-c3nnc4n3[C@@H](CF)CC4)n1)C2=O (single isomer, unassigned) [Example 35]
42 nM	< 0.05 nM	CC[C@@H](N)c1nc(N2CCC[C@H]2C)cc2c1CN(c1cccc(-c3nnc4n3[C@@H](CO)CC4)n1)C2=O [Example 31, 4-[(1R)-1-aminopropyl]-2-{6-[(5R)-5-(hydroxy-methyl)-6,7-dihydro-5H-pyrrolo[2,1-c][1,2,4]triazol-3-yl]pyridin-2-yl}-6-[(2R)-2-methylpyrroli-din-1-yl]-2,3-dihydro-1H-pyrrolo[3,4-c]pyridin-1-one]
179 nM	0.21 nM	CC[C@@H](N)c1nc(N(C)C)cc2c1CN(c1cccc(-c3nnc4n3[C@@H](CF)CC4)n1)C2=O [Example 33, 4-[(1R)-1-aminopropyl]-6-(dimethyl-amino)-2-{6-[(5R)-5-(fluoromethyl)-6,7-dihydro-5H-pyrrolo [2,1-c][1,2,4]triazol-3-yl]pyridin-2-yl}-2,3-dihydro-1H-pyrrolo[3,4-c]pyridin-1-one]
